Measurements as given in ChEMBL document CHEMBL5316303, “[1,2,4]Triazolo[3,4-b]benzothiazole Scaffold as Versatile Nicotinamide Mimic Allowing Nanomolar Inhibition of Different PARP Enzymes” (J Med Chem, 2023).

Tests used:
[1] = biological target: T1, Protein mono-ADP-ribosyltransferase PARP10 (Homo sapiens, UniProt Q53GL7); experiment: Inhibition of N-terminal MBP tagged/C-terminal PARP10 (unknown origin) expressed in Escherichia coli in presence of NAD+
T1 sequence (Q53GL7 whole entry): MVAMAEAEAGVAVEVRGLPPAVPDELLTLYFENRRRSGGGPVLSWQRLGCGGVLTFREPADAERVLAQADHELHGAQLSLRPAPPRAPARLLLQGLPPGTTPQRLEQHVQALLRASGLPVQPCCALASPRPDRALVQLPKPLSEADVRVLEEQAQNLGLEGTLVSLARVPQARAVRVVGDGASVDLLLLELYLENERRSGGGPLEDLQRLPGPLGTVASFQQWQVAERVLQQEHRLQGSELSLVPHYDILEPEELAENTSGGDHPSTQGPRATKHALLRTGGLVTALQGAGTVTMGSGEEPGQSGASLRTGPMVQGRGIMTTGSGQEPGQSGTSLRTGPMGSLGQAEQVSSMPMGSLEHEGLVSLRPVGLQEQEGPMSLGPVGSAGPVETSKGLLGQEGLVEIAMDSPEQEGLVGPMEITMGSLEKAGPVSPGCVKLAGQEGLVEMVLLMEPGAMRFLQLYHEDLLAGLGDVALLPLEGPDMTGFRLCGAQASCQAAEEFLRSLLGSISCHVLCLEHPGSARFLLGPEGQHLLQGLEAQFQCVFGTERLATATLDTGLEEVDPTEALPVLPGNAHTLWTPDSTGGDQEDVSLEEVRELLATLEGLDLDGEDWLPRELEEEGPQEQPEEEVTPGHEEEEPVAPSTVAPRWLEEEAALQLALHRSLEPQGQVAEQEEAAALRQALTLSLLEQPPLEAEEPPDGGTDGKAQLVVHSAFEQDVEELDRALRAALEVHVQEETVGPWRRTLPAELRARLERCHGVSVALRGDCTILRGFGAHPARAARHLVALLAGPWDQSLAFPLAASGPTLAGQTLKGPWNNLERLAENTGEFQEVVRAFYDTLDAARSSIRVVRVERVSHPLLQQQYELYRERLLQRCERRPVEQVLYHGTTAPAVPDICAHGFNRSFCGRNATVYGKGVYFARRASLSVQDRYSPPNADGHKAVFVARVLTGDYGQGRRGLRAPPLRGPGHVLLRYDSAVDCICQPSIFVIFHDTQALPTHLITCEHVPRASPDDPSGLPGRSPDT

[2] = biological target: T2, Protein mono-ADP-ribosyltransferase PARP15 (Homo sapiens, UniProt Q460N3); experiment: Inhibition of N-terminal MBP tagged/C-terminal PARP15 (unknown origin) expressed in Escherichia coli in presence of NAD+
T2 sequence (Q460N3 whole entry): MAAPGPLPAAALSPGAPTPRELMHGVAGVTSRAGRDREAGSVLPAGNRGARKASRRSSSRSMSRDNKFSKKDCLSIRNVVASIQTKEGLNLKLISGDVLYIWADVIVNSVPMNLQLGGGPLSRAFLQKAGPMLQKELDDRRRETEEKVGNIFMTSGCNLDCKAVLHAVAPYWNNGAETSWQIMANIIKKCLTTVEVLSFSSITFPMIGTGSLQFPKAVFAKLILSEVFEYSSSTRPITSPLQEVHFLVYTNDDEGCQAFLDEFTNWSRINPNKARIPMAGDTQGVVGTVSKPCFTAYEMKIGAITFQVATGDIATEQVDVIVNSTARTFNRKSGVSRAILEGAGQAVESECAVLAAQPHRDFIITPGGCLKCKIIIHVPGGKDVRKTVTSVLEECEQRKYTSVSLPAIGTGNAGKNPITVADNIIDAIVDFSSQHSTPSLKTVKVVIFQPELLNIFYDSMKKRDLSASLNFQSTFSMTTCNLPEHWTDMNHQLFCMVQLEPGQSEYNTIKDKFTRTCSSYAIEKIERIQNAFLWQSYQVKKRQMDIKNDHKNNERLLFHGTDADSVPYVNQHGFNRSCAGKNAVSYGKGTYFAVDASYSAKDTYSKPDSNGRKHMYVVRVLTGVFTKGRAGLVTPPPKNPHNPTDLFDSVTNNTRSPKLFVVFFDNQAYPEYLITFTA

[3] = Stability in human plasma measured upto 24 hrs by UV/LC-MS analysis; assay type: ADME, cell-free
[4] = Stability of the compound in MeOH measured upto 24 hrs by UV/LC-MS analysis; assay type: physicochemical
[5] = Stability of the compound in PBS buffer at pH 7.4 measured upto 24 hrs by UV/LC-MS analysis; assay type: physicochemical; settings: pH 7.4, 24 h
[6] = tested on: HEK-293T; experiment: Cytotoxicity in […] cells at 10 to 100 uM measured after 24 hrs by WST-1 based colorimetric assay; assay type: toxicity, cell-based; settings: human, dose 10-100 µM
[7] = biological target: T3, Protein mono-ADP-ribosyltransferase TIPARP (Homo sapiens, UniProt Q7Z3E1); experiment: Inhibition of N-terminal MBP tagged/C-terminal PARP7 (unknown origin) expressed in Escherichia coli in presence of NAD+ by proximity enhanced assay
T3 sequence (Q7Z3E1 whole entry): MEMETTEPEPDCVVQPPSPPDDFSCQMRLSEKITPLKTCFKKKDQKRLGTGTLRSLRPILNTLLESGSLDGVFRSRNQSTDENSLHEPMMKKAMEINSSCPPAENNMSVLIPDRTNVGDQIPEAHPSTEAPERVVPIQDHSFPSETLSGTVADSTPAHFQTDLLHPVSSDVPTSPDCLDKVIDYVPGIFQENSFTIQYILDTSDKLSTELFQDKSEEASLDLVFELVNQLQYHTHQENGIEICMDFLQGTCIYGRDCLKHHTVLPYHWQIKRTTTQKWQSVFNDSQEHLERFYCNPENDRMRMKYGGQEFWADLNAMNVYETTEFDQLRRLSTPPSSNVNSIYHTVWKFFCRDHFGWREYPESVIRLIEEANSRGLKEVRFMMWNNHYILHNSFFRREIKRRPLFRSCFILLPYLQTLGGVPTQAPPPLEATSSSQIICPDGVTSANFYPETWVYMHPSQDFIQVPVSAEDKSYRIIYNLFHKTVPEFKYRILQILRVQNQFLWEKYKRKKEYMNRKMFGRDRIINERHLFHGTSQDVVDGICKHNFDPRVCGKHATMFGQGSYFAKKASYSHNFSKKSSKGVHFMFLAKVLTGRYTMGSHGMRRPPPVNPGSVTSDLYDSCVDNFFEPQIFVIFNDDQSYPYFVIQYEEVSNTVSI

[8] = biological target: Protein mono-ADP-ribosyltransferase PARP6 (Homo sapiens, UniProt Q2NL67); experiment: Inhibition of N-terminal 6 His-MBP tagged human PARP6 expressed in Sf21 cells incubated for 18 hrs in presence of NAD+
Protein mono-ADP-ribosyltransferase PARP6, sequence (Q2NL67 whole entry): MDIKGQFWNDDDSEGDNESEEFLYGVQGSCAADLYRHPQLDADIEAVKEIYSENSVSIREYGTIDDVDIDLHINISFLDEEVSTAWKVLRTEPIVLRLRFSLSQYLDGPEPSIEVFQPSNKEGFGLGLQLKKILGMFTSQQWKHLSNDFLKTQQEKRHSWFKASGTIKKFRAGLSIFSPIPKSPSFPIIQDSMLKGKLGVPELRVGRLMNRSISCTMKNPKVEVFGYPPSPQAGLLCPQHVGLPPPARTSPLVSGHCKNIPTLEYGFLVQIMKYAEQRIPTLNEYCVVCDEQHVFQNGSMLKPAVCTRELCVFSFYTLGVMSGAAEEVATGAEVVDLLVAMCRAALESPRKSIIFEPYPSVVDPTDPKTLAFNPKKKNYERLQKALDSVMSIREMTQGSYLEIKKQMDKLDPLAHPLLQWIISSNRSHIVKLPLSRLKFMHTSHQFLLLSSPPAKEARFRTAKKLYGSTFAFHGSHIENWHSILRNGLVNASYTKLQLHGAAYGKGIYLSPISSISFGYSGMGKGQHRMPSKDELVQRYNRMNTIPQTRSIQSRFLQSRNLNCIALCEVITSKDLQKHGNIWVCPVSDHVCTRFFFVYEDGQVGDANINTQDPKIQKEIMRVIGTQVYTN

**Q.** Which IC50 [1] does the source give for `COc1ccc(OC)c2c1sc1nnc(S)n12` here?
**A.** Not Active

**Q.** What about the IC50 [2] of the same molecule?
**A.** Not Active

**Q.** Which IC50 [1] does the source give for `COc1ccc(OC)c2c1sc1nnc(NC(=O)c3ccc(Cl)cc3)n12` here?
**A.** Not Active

**Q.** Which Stability [3] does the source give for `COc1ccc(OC)c2c1sc1nnc(N)n12` here?
**A.** > 24 h

**Q.** What about the Stability [4] of the same molecule?
**A.** > 24 h

**Q.** What about the Stability [5] of the same molecule?
**A.** > 24 h

**Q.** What about the Activity [6] of the same molecule?
**A.** Non-Toxic

**Q.** For `Oc1ccc2c(c1)sc1nncn12`, which IC50 [7] is on record?
**A.** Not Active

**Q.** What about the Stability [3] of the same molecule?
**A.** > 24 h

**Q.** And the IC50 [8]?
**A.** Not Active

**Q.** And the Stability [4]?
**A.** > 24 h

**Q.** What about the Stability [5] of the same molecule?
**A.** > 24 h

**Q.** And the Activity [6]?
**A.** Non-Toxic

**Q.** What does the source list for `COc1ccc(OC)c2c1sc1nnc(NC(=O)C(C)(C)C)n12`?
**A.** IC50 [1]: Not Active; IC50 [2]: Not Active

**Q.** Which IC50 [1] does the source give for `Cc1ccc2c(c1)sc1nnc(NCc3ccc(Cl)cc3)n12` here?
**A.** Not Active

**Q.** Which IC50 [1] does the source give for `COc1ccc(OC)c2c1sc1nnc(NC(C)=O)n12` here?
**A.** Not Active

**Q.** And the IC50 [2]?
**A.** Not Active

**Q.** Which Activity [6] does the source give for `Oc1ccc(O)c2c1sc1nncn12` here?
**A.** Toxic

**Q.** With `COc1ccc(OC)c2c1sc1nnc(SC)n12` as the molecule, how does the IC50 [1] read?
**A.** Not Active

**Q.** And the IC50 [2]?
**A.** Not Active

**Q.** With `Cc1ccc2c(c1)sc1nnc(N)n12` as the molecule, how does the Stability [3] read?
**A.** > 24 h

**Q.** What about the Stability [4] of the same molecule?
**A.** > 24 h

**Q.** And the Stability [5]?
**A.** > 24 h

**Q.** What about the Activity [6] of the same molecule?
**A.** Non-Toxic

**Q.** Which Activity [6] does the source give for `CC(C)c1ccc2c(c1)sc1nncn12` here?
**A.** Toxic
